Experimental data published in article PMC9387934, “Randomized single oral dose phase 1 study of safety, tolerability, and pharmacokinetics of Iminosugar UV-4 Hydrochloride (UV-4B) in healthy subjects” (PLoS Neglected Tropical Diseases, 2022).
Structures can show the parent of a compound that is named as a salt.

Test: Phase 1a single ascending dose study: UV-4 in pooled urine, urinary recovery and renal clearance
Format: in vivo, human
Settings: for CL renal: human, po; for Cumulative Amount Ae(0-last): corresponds to Ae(0-48); for Cumulative Percent fe(0-last): corresponds to fe(0-48)
Protocol: Serial blood samples were collected at pre-dose (0 hour) and 0.5, 1, 1.5, 2, 2.5, 3, 4, 6, 9, 12, 18, 24, 36, and 48 hours post-dose for assessment of UV-4 concentrations in plasma. Pooled urine samples were collected at pre-dose (-12 to 0 hour) and from 0 to 6, 6 to 12, 12 to 24, and 24 to 48 hours post-dose for assessment of UV-4 concentrations in urine. Plasma and urine concentrations of UV-4 were determined by means of validated, sensitive, and specific high-performance liquid chromatography/tandem mass spectrometric (LC-MS/MS) assays. UV-4 plasma and urine concentrations and PK parameters were listed and summarized by dose, as appropriate. Only the 48 subjects who received active investigational product were included in the PK analysis population.
8.2.3 Specimen Preparation, Handling, and Shipping
8.2.3.1 Instructions for Specimen Preparation, Handling, and Storage
The collected PK blood samples (2 mL) will be placed on ice after blood draw, and within 1 hour centrifuged at room temperature at approximately 3000 revolutions per minute for 15 minutes. Plasma will then be harvested and split into 4 aliquots of approximately 250 μ L and stored frozen at -20°C until shipped.
Urine samples (approximately 10 mL) for determination of UV-4 concentrations in urine will be taken from the total volume provided during each collection period. The total volume of each urine collection will be recorded along with the start/stop time for each urine collection interval.
Analysis of plasma and urine for UV-4 will be performed by the qualified bioanalytical laboratory, Quintiles Bioservices, Inc., Ithaca, New York 14950. Instructions for the proper preparation, handling, storage and shipping of specimens will be provided separately in a study-specific laboratory manual (i.e., Biopacket).
8.2.3.2 Specimen Shipment […]
The following single-dose urine PK parameters will be estimated from the UV-4 urine concentration-time data collected, as appropriate:
Ae Amount of UV-4 excreted in urine unchanged, calculated for each collection interval and cumulatively across intervals fe Fraction of UV-4 excreted in urine unchanged, calculated for each collection interval and cumulatively across intervals […]
Additional UV-4 PK parameters may be calculated at the discretion of the […]
Plasma concentrations and plasma and urine PK parameters will be summarized by treatment using descriptive statistics, as appropriate. Figures for the arithmetic mean (and SD) concentration-time data will be presented for all doses on both a linear and semi-logarithmic scale. Individual concentration-time data will be graphically presented on linear and semi-logarithmic scales. Scatter plots of individual and geometric mean PK parameters versus dose will be presented. Additional graphical presentations of PK data may be added at the discretion of the PK analyst.
Dose proportionality of Cmax, AUC(0-last), and AUC(0-inf) will be assessed graphically and statistically using the power model approach with the logarithm of PK parameters AUC(0-inf) and Cmax as the dependent variables and the logarithm of the dose as the independent variable: ([AUC(0-inf), AUC(0-last), or Cmax]=α *doseβ).
11.4.7 Deviation from Original Analysis Plan
Deviations from the formal statistical analysis plan will be noted in the final Clinical Study

[1] = urine, Cohort 1, 3 mg single oral dose, Ar Mean
[2] = urine, Cohort 1, 3 mg single oral dose, Median
[3] = urine, Cohort 2, 10 mg single oral dose, Ar Mean
[4] = urine, Cohort 2, 10 mg single oral dose, Median
[5] = urine, Cohort 3, 30 mg single oral dose, Ar Mean
[6] = urine, Cohort 3, 30 mg single oral dose, Median
[7] = urine, Cohort 4, 90 mg single oral dose, Ar Mean
[8] = urine, Cohort 4, 90 mg single oral dose, Median

COCCCCCCCCCN1C[C@H](O)[C@@H](O)[C@H](O)[C@H]1CO [UV-4B, N-(9’-methoxynonyl)-1-deoxynojirimycin hydrochloride]
fe(0-last) (3 mg single oral dose, Ar Mean): 39.8%
CL renal (both sexes, urine and plasma, 3 mg, 3 mg single oral dose, Ar Mean): 242 mL/min
CL renal (both sexes, urine and plasma, 3 mg, 3 mg single oral dose, Geo Mean): 238 mL/min
CL renal (both sexes, urine and plasma, 1000 mg, 1000 mg single oral dose, Ar Mean): 198 mL/min
CL renal (both sexes, urine and plasma, 1000 mg, 1000 mg single oral dose, Geo Mean): 195 mL/min
CL renal (both sexes, urine, 10 mg, 10 mg single oral dose, Geo Mean): 190 mL/min
CL renal (both sexes, urine, 30 mg, 30 mg single oral dose, Ar Mean): 210 mL/min
CL renal (both sexes, urine, 30 mg, 30 mg single oral dose, Geo Mean): 208 mL/min
CL renal (both sexes, urine, 90 mg, 90 mg single oral dose, Ar Mean): 228 mL/min
CL renal (both sexes, urine, 90 mg, 90 mg single oral dose, Geo Mean): 227 mL/min
CL renal (both sexes, urine, 180 mg, 180 mg single oral dose, Ar Mean): 233 mL/min
CL renal (both sexes, urine, 180 mg, 180 mg single oral dose, Geo Mean): 232 mL/min
CL renal (both sexes, urine, 360 mg, 360 mg single oral dose, Ar Mean): 235 mL/min
CL renal (both sexes, urine, 360 mg, 360 mg single oral dose, Geo Mean): 228 mL/min
CL renal (both sexes, urine, 720 mg, 720 mg single oral dose, Ar Mean): 185 mL/min
CL renal (both sexes, urine, 720 mg, 720 mg single oral dose, Geo Mean): 182 mL/min
CL renal (urine, 10 mg, 10 mg single oral dose, Ar Mean): 195 mL/min
By-Interval Amount Ae(0-6) [1]: 0.607 mg
By-Interval Amount Ae(6-12) [1]: 0.215 mg
By-Interval Amount Ae(12-24) [1]: 0.202 mg
By-Interval Amount Ae(24-48) [1]: 0.170 mg
Cumulative Amount Ae(0-12) [1]: 0.822 mg
Cumulative Amount Ae(0-24) [1]: 1.02 mg
Cumulative Amount Ae(0-last) [1]: 1.19 mg
By-Interval Amount Ae(0-6) [2]: 0.624 mg
By-Interval Amount Ae(6-12) [2]: 0.216 mg
By-Interval Amount Ae(12-24) [2]: 0.230 mg
By-Interval Amount Ae(24-48) [2]: 0.173 mg
By-Interval Percent fe(0-6) [2]: 20.8%
By-Interval Percent fe(6-12) [2]: 7.19%
By-Interval Percent fe(12-24) [2]: 7.65%
By-Interval Percent fe(24-48) [2]: 5.75%
Cumulative Amount Ae(0-12) [2]: 0.892 mg
Cumulative Amount Ae(0-24) [2]: 1.08 mg
Cumulative Percent fe(0-12) [2]: 29.7%
Cumulative Percent fe(0-24) [2]: 36.0%
Cumulative Amount Ae(0-last) [2]: 1.23 mg
Cumulative Percent fe(0-last) [2]: 40.9%
By-Interval Amount Ae(0-6) [3]: 2.67 mg
By-Interval Amount Ae(6-12) [3]: 0.859 mg
By-Interval Amount Ae(12-24) [3]: 0.608 mg
By-Interval Amount Ae(24-48) [3]: 0.503 mg
By-Interval Percent fe(0-6) [3]: 26.7%
By-Interval Percent fe(6-12) [3]: 8.59%
By-Interval Percent fe(12-24) [3]: 6.08%
By-Interval Percent fe(24-48) [3]: 5.03%
Cumulative Amount Ae(0-12) [3]: 3.53 mg
Cumulative Amount Ae(0-24) [3]: 4.13 mg
Cumulative Percent fe(0-12) [3]: 35.3%
Cumulative Percent fe(0-24) [3]: 41.3%
Cumulative Amount Ae(0-last) [3]: 4.64 mg
Cumulative Percent fe(0-last) [3]: 46.4%
By-Interval Amount Ae(0-6) [4]: 2.77 mg
By-Interval Amount Ae(6-12) [4]: 0.883 mg
By-Interval Amount Ae(12-24) [4]: 0.635 mg
By-Interval Amount Ae(24-48) [4]: 0.503 mg
By-Interval Percent fe(0-6) [4]: 27.7%
By-Interval Percent fe(6-12) [4]: 8.83%
By-Interval Percent fe(12-24) [4]: 6.35%
By-Interval Percent fe(24-48) [4]: 5.03%
Cumulative Amount Ae(0-12) [4]: 3.71 mg
Cumulative Amount Ae(0-24) [4]: 4.34 mg
Cumulative Percent fe(0-12) [4]: 37.1%
Cumulative Percent fe(0-24) [4]: 43.4%
Cumulative Amount Ae(0-last) [4]: 4.82 mg
Cumulative Percent fe(0-last) [4]: 48.2%
By-Interval Amount Ae(0-6) [5]: 10.6 mg
By-Interval Amount Ae(6-12) [5]: 2.45 mg
By-Interval Amount Ae(12-24) [5]: 1.61 mg
By-Interval Amount Ae(24-48) [5]: 0.887 mg
By-Interval Percent fe(0-6) [5]: 35.3%
By-Interval Percent fe(6-12) [5]: 8.16%
By-Interval Percent fe(12-24) [5]: 5.36%
By-Interval Percent fe(24-48) [5]: 2.96%
Cumulative Amount Ae(0-12) [5]: 13.0 mg
Cumulative Amount Ae(0-24) [5]: 14.6 mg
Cumulative Percent fe(0-12) [5]: 43.4%
Cumulative Percent fe(0-24) [5]: 48.8%
Cumulative Amount Ae(0-last) [5]: 15.5 mg
Cumulative Percent fe(0-last) [5]: 51.7%
By-Interval Amount Ae(0-6) [6]: 10.5 mg
By-Interval Amount Ae(6-12) [6]: 2.47 mg
By-Interval Amount Ae(12-24) [6]: 1.55 mg
By-Interval Amount Ae(24-48) [6]: 0.96 mg
By-Interval Percent fe(0-6) [6]: 34.9%
By-Interval Percent fe(6-12) [6]: 8.24%
By-Interval Percent fe(12-24) [6]: 5.14%
By-Interval Percent fe(24-48) [6]: 3.20%
Cumulative Amount Ae(0-12) [6]: 12.9 mg
Cumulative Amount Ae(0-24) [6]: 14.6 mg
Cumulative Percent fe(0-12) [6]: 43.0%
Cumulative Percent fe(0-24) [6]: 48.7%
Cumulative Amount Ae(0-last) [6]: 15.5 mg
Cumulative Percent fe(0-last) [6]: 51.7%
By-Interval Amount Ae(0-6) [7]: 38.1 mg
By-Interval Amount Ae(6-12) [7]: 6.05 mg
By-Interval Amount Ae(12-24) [7]: 3.89 mg
By-Interval Amount Ae(24-48) [7]: 1.61 mg
By-Interval Percent fe(0-6) [7]: 42.2%
By-Interval Percent fe(6-12) [7]: 6.72%
By-Interval Percent fe(12-24) [7]: 4.32%
By-Interval Percent fe(24-48) [7]: 1.79%
Cumulative Amount Ae(0-12) [7]: 44.1 mg
Cumulative Amount Ae(0-24) [7]: 48.0 mg
Cumulative Percent fe(0-12) [7]: 49.0%
Cumulative Percent fe(0-24) [7]: 53.3%
Cumulative Amount Ae(0-last) [7]: 49.6 mg
Cumulative Percent fe(0-last) [7]: 55.1%
By-Interval Amount Ae(0-6) [8]: 39.3 mg
By-Interval Amount Ae(6-12) [8]: 6.36 mg
